ChEMBL document CHEMBL1135773, “Purine and pyrimidine (P2) receptors as drug targets” (J Med Chem, 2002)

What was measured:
P2X purinoceptor 1 [1] = biological target: T1, P2X purinoceptor 1 (Rattus norvegicus, UniProt P47824); assay: The compound was evaluated for antagonist activity against recombinant rat P2X purinoceptor 1 (P2X1); assay type: functional
T1 sequence (P47824 whole entry): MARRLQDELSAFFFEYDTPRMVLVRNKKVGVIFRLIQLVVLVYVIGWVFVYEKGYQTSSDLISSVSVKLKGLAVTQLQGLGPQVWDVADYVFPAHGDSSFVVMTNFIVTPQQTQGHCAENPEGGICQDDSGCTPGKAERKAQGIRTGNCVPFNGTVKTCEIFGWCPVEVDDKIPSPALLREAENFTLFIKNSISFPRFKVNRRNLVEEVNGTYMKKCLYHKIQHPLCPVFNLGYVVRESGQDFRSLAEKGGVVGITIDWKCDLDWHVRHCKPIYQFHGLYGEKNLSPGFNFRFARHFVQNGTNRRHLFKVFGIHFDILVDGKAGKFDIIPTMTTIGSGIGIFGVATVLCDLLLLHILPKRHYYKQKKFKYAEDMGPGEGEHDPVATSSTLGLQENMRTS

P2X purinoceptor 4 [2] = biological target: T2, P2X purinoceptor 4 (Homo sapiens, UniProt Q99571); assay: Antagonist activity against recombinant human P2X purinoceptor 4 (P2X4); assay type: functional
T2 sequence (Q99571 whole entry): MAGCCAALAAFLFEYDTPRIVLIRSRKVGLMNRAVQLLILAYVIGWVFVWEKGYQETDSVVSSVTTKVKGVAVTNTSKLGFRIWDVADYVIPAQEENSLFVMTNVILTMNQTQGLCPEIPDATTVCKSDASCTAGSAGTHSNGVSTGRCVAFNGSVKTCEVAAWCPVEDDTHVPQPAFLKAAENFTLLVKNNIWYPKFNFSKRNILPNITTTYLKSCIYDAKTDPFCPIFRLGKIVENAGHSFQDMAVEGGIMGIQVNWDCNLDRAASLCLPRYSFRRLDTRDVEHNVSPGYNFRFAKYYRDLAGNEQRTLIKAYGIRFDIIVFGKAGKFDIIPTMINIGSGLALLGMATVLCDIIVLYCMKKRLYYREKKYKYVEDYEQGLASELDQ

P2X purinoceptor 2 = biological target: T3, P2X purinoceptor 2 (Rattus norvegicus, UniProt P49653); assay: Antagonist activity against recombinant rat receptor P2X purinoceptor 2 (P2X2) at 10 uM, expressed in Xenopus oocytes; assay type: functional, cell-based, Oocyte
T3 sequence (P49653 whole entry): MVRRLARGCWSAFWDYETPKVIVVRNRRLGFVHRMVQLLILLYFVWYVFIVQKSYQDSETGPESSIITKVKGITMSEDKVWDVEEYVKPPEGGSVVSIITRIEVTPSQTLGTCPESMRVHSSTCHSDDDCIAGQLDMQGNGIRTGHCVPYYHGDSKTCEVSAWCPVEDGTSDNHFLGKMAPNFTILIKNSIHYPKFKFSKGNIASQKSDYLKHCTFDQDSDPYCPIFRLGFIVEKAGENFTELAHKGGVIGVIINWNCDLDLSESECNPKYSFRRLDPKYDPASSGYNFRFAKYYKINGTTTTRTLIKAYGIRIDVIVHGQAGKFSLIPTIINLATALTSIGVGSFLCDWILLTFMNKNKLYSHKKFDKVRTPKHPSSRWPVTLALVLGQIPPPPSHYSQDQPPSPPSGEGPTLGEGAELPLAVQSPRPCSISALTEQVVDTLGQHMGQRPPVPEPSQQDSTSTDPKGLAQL

P2X purinoceptor 3 = biological target: T4, P2X purinoceptor 3 (Homo sapiens, UniProt P56373); assay: Antagonist activity against recombinant human P2X purinoceptor 3 (P2X3 ); assay type: functional
T4 sequence (P56373 whole entry): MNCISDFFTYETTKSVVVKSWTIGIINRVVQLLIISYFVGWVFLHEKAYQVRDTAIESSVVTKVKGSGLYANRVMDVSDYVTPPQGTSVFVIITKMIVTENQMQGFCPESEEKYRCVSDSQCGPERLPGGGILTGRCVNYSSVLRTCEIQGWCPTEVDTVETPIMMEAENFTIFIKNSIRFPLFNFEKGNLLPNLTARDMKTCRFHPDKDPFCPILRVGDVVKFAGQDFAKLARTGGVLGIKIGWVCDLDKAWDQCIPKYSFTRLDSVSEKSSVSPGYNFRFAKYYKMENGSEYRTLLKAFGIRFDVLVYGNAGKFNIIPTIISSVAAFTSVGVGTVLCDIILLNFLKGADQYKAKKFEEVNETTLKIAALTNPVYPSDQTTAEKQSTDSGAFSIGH

P2Y purinoceptor 11 = biological target: T5, P2Y purinoceptor 11 (Homo sapiens, UniProt Q96G91); assay: Agonist activity against phospholipase C coupled human P2Y purinoceptor 11 (P2Y11); assay type: functional
T5 sequence (Q96G91 whole entry): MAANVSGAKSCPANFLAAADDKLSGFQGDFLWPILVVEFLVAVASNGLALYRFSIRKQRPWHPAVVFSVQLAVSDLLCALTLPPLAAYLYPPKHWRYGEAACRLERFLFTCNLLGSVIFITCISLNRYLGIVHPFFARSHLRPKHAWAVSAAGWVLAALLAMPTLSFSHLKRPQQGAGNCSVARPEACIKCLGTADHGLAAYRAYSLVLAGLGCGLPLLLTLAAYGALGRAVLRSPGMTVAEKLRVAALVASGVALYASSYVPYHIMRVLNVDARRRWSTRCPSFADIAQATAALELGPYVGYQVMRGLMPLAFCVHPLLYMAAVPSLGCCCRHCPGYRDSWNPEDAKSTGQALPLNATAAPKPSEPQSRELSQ

P2Y purinoceptor 12 = P2Y purinoceptor 12 (Rattus norvegicus, UniProt Q9EPX4); assay: Antagonist activity against phospholipase C coupled rat P2Y purinoceptor 12 (P2Y12); assay type: functional
Sequence of P2Y purinoceptor 12 (Q9EPX4 whole entry): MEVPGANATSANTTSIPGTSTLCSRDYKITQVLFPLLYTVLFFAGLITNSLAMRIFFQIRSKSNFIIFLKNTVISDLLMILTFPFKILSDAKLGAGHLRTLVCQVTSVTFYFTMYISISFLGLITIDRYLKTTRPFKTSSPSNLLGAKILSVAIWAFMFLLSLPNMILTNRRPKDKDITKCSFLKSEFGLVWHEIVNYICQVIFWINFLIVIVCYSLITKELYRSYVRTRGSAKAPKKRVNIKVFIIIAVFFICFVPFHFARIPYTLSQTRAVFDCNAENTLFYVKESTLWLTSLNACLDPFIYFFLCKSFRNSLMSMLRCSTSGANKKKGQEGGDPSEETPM

P2X purinoceptor 1 [3] = biological target: T6, P2X purinoceptor 1 (Homo sapiens, UniProt P51575); assay: Antagonist activity against recombinant human P2X purinoceptor 1 (P2X1 ); assay type: functional
T6 sequence (P51575 whole entry): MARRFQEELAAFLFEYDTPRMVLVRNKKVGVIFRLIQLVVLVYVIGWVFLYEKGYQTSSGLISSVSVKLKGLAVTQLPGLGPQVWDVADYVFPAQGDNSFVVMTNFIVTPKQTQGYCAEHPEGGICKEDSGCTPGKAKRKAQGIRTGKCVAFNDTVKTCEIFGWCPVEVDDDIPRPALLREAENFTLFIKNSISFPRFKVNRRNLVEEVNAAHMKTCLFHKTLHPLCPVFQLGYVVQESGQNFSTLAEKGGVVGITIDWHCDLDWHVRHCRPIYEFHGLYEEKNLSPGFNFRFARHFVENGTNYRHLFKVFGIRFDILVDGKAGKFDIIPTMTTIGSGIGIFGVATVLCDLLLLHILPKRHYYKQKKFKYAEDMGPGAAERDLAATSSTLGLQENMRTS

P2X purinoceptor 4 [4] = biological target: T7, P2X purinoceptor 4 (Rattus norvegicus, UniProt P51577); assay: Antagonist activity against recombinant rat P2X purinoceptor 4 (P2X4) at 3 uM, expressed in Xenopus oocytes; assay type: functional, cell-based, Oocyte
T7 sequence (P51577 whole entry): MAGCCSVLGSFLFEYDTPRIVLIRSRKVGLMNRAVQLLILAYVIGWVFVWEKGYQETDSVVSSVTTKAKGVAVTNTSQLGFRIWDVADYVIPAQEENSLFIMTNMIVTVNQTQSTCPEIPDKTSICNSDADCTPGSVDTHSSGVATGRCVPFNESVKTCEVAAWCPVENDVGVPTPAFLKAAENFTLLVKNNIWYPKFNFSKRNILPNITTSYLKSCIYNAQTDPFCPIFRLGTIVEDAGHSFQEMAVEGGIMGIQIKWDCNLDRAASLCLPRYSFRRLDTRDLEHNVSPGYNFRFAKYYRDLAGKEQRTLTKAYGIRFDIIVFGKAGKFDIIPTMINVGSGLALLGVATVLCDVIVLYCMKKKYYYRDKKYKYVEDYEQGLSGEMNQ

P2Y purinoceptor 1 = P2Y purinoceptor 1 (Meleagris gallopavo, UniProt P49652); assay: Evaluated for agonist activity against phospholipase C coupled P2Y purinoceptor 1 (P2Y1) of turkey erythrocytes; assay type: functional
Sequence of P2Y purinoceptor 1 (P49652 whole entry): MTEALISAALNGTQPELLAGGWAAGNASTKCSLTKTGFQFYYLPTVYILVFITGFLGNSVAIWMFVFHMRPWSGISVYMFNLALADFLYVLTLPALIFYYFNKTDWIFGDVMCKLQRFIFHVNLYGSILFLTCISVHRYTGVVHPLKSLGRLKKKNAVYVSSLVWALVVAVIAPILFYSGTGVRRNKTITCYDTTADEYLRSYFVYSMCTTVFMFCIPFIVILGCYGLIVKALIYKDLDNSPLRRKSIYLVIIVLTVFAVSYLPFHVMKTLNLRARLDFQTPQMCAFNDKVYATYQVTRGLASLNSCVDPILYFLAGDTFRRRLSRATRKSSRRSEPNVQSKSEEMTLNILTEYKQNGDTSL

P2X purinoceptor 1 [5] = biological target: T1, P2X purinoceptor 1; assay: The compound was evaluated for antagonist activity against recombinant rat P2X purinoceptor 1 (P2X1) at 1 uM, expressed in Xenopus oocytes; assay type: functional, cell-based, Oocyte
P2X purinoceptor 1 [6] = biological target: T1, P2X purinoceptor 1; assay: The compound was evaluated for antagonist activity against P2X purinoceptor 1 (P2X1) like receptor from rat vas deferens; assay type: functional
P2X purinoceptor 4 [7] = biological target: T7, P2X purinoceptor 4; assay: Antagonist activity against recombinant rat P2X purinoceptor 4 (P2X4) at 30 uM, expressed in Xenopus oocytes; assay type: functional, cell-based, Oocyte
P2X purinoceptor 5 = biological target: T8, P2X purinoceptor 5 (Rattus norvegicus, UniProt P51578); assay: Antagonist activity against recombinant rat P2X purinoceptor 5 (P2X5); assay type: functional
T8 sequence (P51578 whole entry): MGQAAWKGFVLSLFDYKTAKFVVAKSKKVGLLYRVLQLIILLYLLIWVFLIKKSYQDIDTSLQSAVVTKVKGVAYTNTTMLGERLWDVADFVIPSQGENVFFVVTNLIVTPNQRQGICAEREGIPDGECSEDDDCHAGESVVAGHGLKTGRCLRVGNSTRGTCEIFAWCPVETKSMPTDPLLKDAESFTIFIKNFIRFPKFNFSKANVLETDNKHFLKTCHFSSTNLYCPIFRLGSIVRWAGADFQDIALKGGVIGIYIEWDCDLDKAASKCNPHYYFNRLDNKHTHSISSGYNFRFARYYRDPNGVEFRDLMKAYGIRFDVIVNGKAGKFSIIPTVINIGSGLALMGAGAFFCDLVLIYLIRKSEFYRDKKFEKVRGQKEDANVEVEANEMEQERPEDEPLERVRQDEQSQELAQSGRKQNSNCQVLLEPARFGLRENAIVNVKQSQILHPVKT

P2X purinoceptor 6 = P2X purinoceptor 6 (Rattus norvegicus, UniProt P51579); assay: Antagonist activity against recombinant rat P2X purinoceptor 6 (P2X6 ); assay type: functional
Sequence of P2X purinoceptor 6 (P51579 whole entry): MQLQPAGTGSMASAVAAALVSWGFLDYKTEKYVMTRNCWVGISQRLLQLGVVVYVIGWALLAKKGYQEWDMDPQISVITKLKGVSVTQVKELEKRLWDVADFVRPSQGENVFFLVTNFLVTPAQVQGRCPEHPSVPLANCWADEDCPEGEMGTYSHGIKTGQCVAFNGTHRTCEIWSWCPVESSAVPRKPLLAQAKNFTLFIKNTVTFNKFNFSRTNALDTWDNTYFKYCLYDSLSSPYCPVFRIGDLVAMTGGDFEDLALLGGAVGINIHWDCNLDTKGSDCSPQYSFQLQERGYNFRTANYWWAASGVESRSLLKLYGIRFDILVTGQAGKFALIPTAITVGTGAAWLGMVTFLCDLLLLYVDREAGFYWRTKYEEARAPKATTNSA

P2Y purinoceptor 6 = P2Y purinoceptor 6 (Homo sapiens, UniProt Q15077); assay: The compound was evaluated for agonist activity against phospholipase C coupled recombinant human P2Y purinoceptor 6 (P2Y6); assay type: functional
Sequence of P2Y purinoceptor 6 (Q15077 whole entry): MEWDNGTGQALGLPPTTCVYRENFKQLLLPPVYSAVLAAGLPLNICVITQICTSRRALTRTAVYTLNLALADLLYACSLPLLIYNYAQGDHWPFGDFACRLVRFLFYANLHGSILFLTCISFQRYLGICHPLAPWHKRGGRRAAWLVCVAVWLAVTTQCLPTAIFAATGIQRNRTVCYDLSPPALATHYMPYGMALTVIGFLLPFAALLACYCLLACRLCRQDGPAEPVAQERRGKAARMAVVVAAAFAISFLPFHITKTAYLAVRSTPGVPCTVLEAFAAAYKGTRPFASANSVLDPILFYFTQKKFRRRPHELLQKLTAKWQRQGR

O=c1[nH]cnc2c1ncn2[C@@H]1O[C@H](COP(=O)(O)OP(=O)(O)OP(=O)(O)OP(=O)(O)OP(=O)(O)OC[C@H]2O[C@@H](n3cnc4c(=O)[nH]cnc43)[C@H](O)[C@@H]2O)[C@@H](O)[C@H]1O showed an EC50 (P2X purinoceptor 1 [1]) of 1.5 nM.

Molecule Nc1ncnc2c1ncn2[C@@H]1O[C@H](COP(=O)(O)OP(=O)(O)S)[C@@H](O)[C@H]1O (some centres undefined) has an EC50 (P2X purinoceptor 4 [2]) of 25000 nM, an EC50 (P2X purinoceptor 2) of 100000 nM and an EC50 (P2X purinoceptor 3) of 8800 nM. It also gave an EC50 (P2Y purinoceptor 11) of 30000 nM, an EC50 (P2Y purinoceptor 12) of 82 nM and an EC50 (P2X purinoceptor 1 [3]) of 2500 nM.

CCCCCCSc1nc(N)c2ncn([C@@H]3O[C@H](COP(=O)(O)O)[C@@H](O)[C@H]3O)c2n1 was tested, and the EC50 (P2X purinoceptor 4 [4]) was 20000 nM, the EC50 (P2Y purinoceptor 1) was 4.8 nM and the EC50 (P2X purinoceptor 1 [5]) was 840 nM.

Nc1c(S(=O)(=O)O)cc(Nc2ccc(Nc3nc(Cl)nc(Cl)n3)c(S(=O)(=O)O)c2)c2c1C(=O)c1ccccc1C2=O gave an IC50 (P2X purinoceptor 1 [6]) of 8800 nM.

In the case of Nc1ncnc2c1ncn2[C@H]1CC(OP(=O)(O)O)C2(COP(=O)(O)O)CC12 (some centres undefined), the EC50 (P2Y purinoceptor 1) is reported as 155 nM.

In the case of Nc1ncnc2c1ncn2[C@H]1C[C@H](O)[C@@H](COP(=O)(O)OP(=O)(O)OP(=O)(O)O)O1, the EC50 (P2Y purinoceptor 11) is reported as 9000 nM.

For Cc1nc(/N=N/c2cc(S(=O)(=O)O)c3cc([N+](=O)[O-])cc(S(=O)(=O)O)c3c2)c(COP(=O)(O)O)c(C=O)c1O, the EC50 (P2X purinoceptor 1 [1]) was 14 nM.

CSc1nc(N)c2ncn([C@@H]3O[C@H](COP(=O)(O)OP(=O)(O)OP(=O)(O)O)[C@@H](O)[C@H]3O)c2n1 gave an EC50 (P2X purinoceptor 4 [2]) of 1000 nM, an EC50 (P2X purinoceptor 4 [7]) of 7400 nM and an EC50 (P2X purinoceptor 5) of 1000 nM. For the same molecule, the EC50 (P2X purinoceptor 6) was 600 nM, the EC50 (P2X purinoceptor 2) was 1500 nM and the EC50 (P2X purinoceptor 3) was 350 nM. It also gave an EC50 (P2Y purinoceptor 11) of 50000 nM, an EC50 (P2Y purinoceptor 12) of 1.1 nM and an EC50 (P2Y purinoceptor 6) of 100000 nM. It also gave an EC50 (P2X purinoceptor 1 [3]) of 54 nM.
